Values quoted from earlier work in patent publication US9333171B2, “Controlled-release CNS modulating compositions and methods for the treatment of otic disorders” (Otonomy, Inc., priority 2008, dated 2016).

Tests used:
V2-R = details: infusion into the scala tympani
guinea pigs = details: chronic administration in guinea pigs

SMILES | Effect on Meniere's disease symptoms (V2-R) | Induction of endolymphatic hydrops (guinea pigs)
Cc1ccccc1C(=O)Nc1ccc(C(=O)N2CCCC(N(C)C)c3ccccc32)cc1 (centres unmarked) [OPC-31260] | marked reduction of Meniere's disease symptoms | –
NC(=O)CC[C@@H]1NC(=O)[C@H](Cc2ccccc2)NC(=O)[C@H](Cc2ccc(O)cc2)NC(=O)[C@@H](N)CSSC[C@@H](C(=O)N2CCC[C@H]2C(=O)N[C@@H](CCCN=C(N)N)C(=O)NCC(N)=O)NC(=O)[C@H](CC(N)=O)NC1=O [VP, vasopressin] | – | induce endolymphatic hydrops
